Data on two compounds can be found in paper PMC12030000 (Pharmaceuticals, 2025).

The subject of this experiment is ALS patient-derived iMNs (C9orf72 pathology). The experiment can be described thus: iPSC-derived motor neuron (iMN) survival assay with neurotrophic factor withdrawal. It is filed as cell-based, human. As to conditions: for Median survival time of treated ALS iMNs: ALS patient-derived iMNs, 14-day period; for Surviving iMNs (cell count): 300 tracked ALS iMNs on day 0. The procedure: In this study, iPSC-derived iMNs were generated from PALS (C9orf72 pathology) and from healthy donors' PBMCs. Neuronal survival rate was compared between PrimeC's components, their combination, and the relevant DMSO vehicle reference as described in Figure 2A-C. […] form between days 13 and 16 after transduction of iMN factors. The iMN survival assay was initiated on day 17. Starting at Day 17, longitudinal tracking of iMNs was performed using Molecular Devices ImageExpress once every other day for 16 days. Tracking of neuronal survival was performed using ImageJ version 1.53t. Neurons were scored as dead when their soma was no longer detectable by RFP fluorescence. iMN survival experiments included neurotrophic factor withdrawal in order to exacerbate the survival difference between control and PALS' iMNs. Neurotrophic factor withdrawal of FGF-2, BDNF, GDNF, and CNTF from the culture medium was performed on day 17. For treatment with drugs, cultures were treated with DMSO or a drug after neurotrophic factor withdrawal (starting at day 17). Treatment with fresh media containing vehicle or drugs occurred every 3 days for 16 days. […] Control cell lines of non-neurological subjects (i.e., neurologically healthy controls) were used in the comparisons. […] A hazard ratio was calculated for each of the comparisons as the likelihood of neuron death when treated with the indicated compound divided by the likelihood of neuron death when treated with another indicated compound. The lower the ratio, the […] it is for a cell to die when treated with the second compound compared to being treated with the first compound in each comparison above, and vice versa. Analysis utilized GraphPad Prism version 10.0.2 GraphPad. […] Kaplan-Meier plots were generated using iMNs obtained from each treatment condition in replicates of three. Confirmation of iMN survival times was analyzed by manual longitudinal tracking.

Where [1] appears, read: day 16, day 16 excluded from survival analyses.

Turning to `O=C(O)c1cn(C2CC2)c2cc(N3CCNCC3)c(F)cc2c1=O` [Ciprofloxacin, ciprofloxacin], the “Median survival time of treated ALS iMNs” value is 8 days. Further, under “day 2”, the “Surviving iMNs (cell count)” value worked out at 300. Besides, the “Surviving iMNs (cell count)” value (day 4) was determined as 262. Also, the “Surviving iMNs (cell count)” value (day 6) came out at 238. The “Surviving iMNs (cell count)” value (day 8) is listed as 210. The “Surviving iMNs (cell count)” value (day 10) is 177. Also, the “Surviving iMNs (cell count)” value (day 12) amounted to 146. Further, the “Surviving iMNs (cell count)” value (day 14) was determined as 118. For the same compound, the “Surviving iMNs (cell count)” value under setting [1] is 74.
For `Cc1ccc(-c2cc(C(F)(F)F)nn2-c2ccc(S(N)(=O)=O)cc2)cc1` [Celecoxib, celecoxib], the “Median survival time of treated ALS iMNs” value is given as 8 days. Also, the “Surviving iMNs (cell count)” value (day 2) was found to be 300. Also, the “Surviving iMNs (cell count)” value (day 4) came to 272. For the setting “day 6”, the “Surviving iMNs (cell count)” value came to 227. For the same compound, the “Surviving iMNs (cell count)” value (day 8) is on record as 190. Moreover, under “day 10”, the “Surviving iMNs (cell count)” value was 139. In addition, the “Surviving iMNs (cell count)” value (day 12) is listed as 104. Besides, the “Surviving iMNs (cell count)” value (day 14) stood at 79. Also, the “Surviving iMNs (cell count)” value under setting [1] came to 55.
